The supplement of paper PMC13380429

How the values were obtained:
Conditions in all cases: 72 h
Calu-3 [1] = assay: drug sensitivity score (DSS) for viability; higher = more toxic; extreme values may be limits of the assay
HepG2 [2] = assay: as above
U2OS [3] = assay: as above
Vero E6 [4] = assay: as above
Caco-2 [5] = assay: as above
Calu-3 [6] = assay: relative viability EC50 (midpoint between 100% and the lowest measured viability); higher = less toxic
HepG2 [7] = assay: as above
U2OS [8] = assay: as above
Vero E6 [9] = assay: as above
Caco-2 [10] = assay: as above
Calu-3 [11] = assay: cell viability relative to DMSO; higher = less toxic
HepG2 [12] = assay: as above
U2OS [13] = assay: as above
Vero E6 [14] = assay: as above
Caco-2 [15] = assay: as above

SMILES	drug sensitivity score (Calu-3 [1])	drug sensitivity score (HepG2 [2])	drug sensitivity score (U2OS [3])	drug sensitivity score (Vero E6 [4])	drug sensitivity score (Caco-2 [5])	relative viability EC50 (Calu-3 [6])	relative viability EC50 (HepG2 [7])	relative viability EC50 (U2OS [8])	relative viability EC50 (Vero E6 [9])	relative viability EC50 (Caco-2 [10])	cell viability (Calu-3 [11]; 1 nM)	cell viability (Calu-3 [11]; 10 nM)	cell viability (Calu-3 [11]; 100 nM)	cell viability (Calu-3 [11]; 1000 nM)	cell viability (Calu-3 [11]; 10000 nM)	cell viability (HepG2 [12]; 1 nM)	cell viability (HepG2 [12]; 10 nM)	cell viability (HepG2 [12]; 100 nM)	cell viability (HepG2 [12]; 1000 nM)	cell viability (HepG2 [12]; 10000 nM)	cell viability (U2OS [13]; 1 nM)	cell viability (U2OS [13]; 10 nM)	cell viability (U2OS [13]; 100 nM)	cell viability (U2OS [13]; 1000 nM)	cell viability (U2OS [13]; 10000 nM)	cell viability (Vero E6 [14]; 1 nM)	cell viability (Vero E6 [14]; 10 nM)	cell viability (Vero E6 [14]; 100 nM)	cell viability (Vero E6 [14]; 1000 nM)	cell viability (Vero E6 [14]; 10000 nM)	cell viability (Caco-2 [15]; 1 nM)	cell viability (Caco-2 [15]; 10 nM)	cell viability (Caco-2 [15]; 100 nM)	cell viability (Caco-2 [15]; 1000 nM)	cell viability (Caco-2 [15]; 10000 nM)
CC1(C)Cc2c(-c3ccccc3)c(-c3ccc(Cl)cc3)c(CC(=O)O)n2C1 [licofelone]	0	0	0	0	0.1	> 10 µM	> 10 µM	> 10 µM	> 10 µM	> 10 µM	104%	101%	100%	96%	95%	110%	102%	95.4%	101%	93.1%	101%	101%	97.5%	102%	90.9%	102%	102%	102%	107%	99.5%	94.8%	94.9%	87.5%	96.9%	85.3%
Clc1cccc(N2CCNCC2)c1 [mCPP]	0	0	0	0	0	> 10 µM	> 10 µM	> 10 µM	> 10 µM	> 10 µM	91.4%	102%	104%	104%	100%	97.7%	95.3%	96%	100%	105%	99.8%	93.3%	103%	97.1%	93.9%	88.9%	103%	96.7%	100%	106%	88.9%	97%	96.1%	92.4%	98.4%
CN1CCCCC1CCN1c2ccccc2Sc2ccc([S+](C)[O-])cc21 (stereo not given) [mesoridazine]	0	0	0	0	0	> 10 µM	> 10 µM	> 10 µM	> 10 µM	> 10 µM	101%	108%	97.7%	105%	120%	108%	93.2%	120%	106%	111%	95.3%	101%	96.7%	97.5%	101%	93.2%	96.7%	91%	90.1%	96.5%	93.4%	93.9%	90.5%	97%	110%
CC(C)NCC(O)c1cc(O)cc(O)c1 (stereo not given) [metaproterenol]	0	0	0	0	0	> 10 µM	> 10 µM	> 10 µM	> 10 µM	> 10 µM	101%	97.2%	106%	108%	98%	98.6%	110%	108%	108%	108%	98.3%	96.8%	98.9%	98.7%	102%	94.4%	95.6%	92.7%	94.7%	113%	93.4%	90.8%	104%	106%	95.1%
C[C@](N)(Cc1ccc(O)c(O)c1)C(=O)O [methyldopa]	0	0	0	0	0	> 10 µM	> 10 µM	> 10 µM	> 10 µM	> 10 µM	96.9%	102%	101%	98.9%	93.6%	94.1%	97.4%	104%	92.3%	108%	101%	103%	96.7%	97.8%	93.1%	99.2%	102%	94.5%	97.9%	106%	97.5%	103%	89.8%	106%	99.9%
CC1(C)S[C@@H]2[C@H](NC(=O)[C@H](NC(=O)N3CCN(S(C)(=O)=O)C3=O)c3ccccc3)C(=O)N2[C@H]1C(=O)O [mezlocillin]	0	0	0	0	1.1	> 10 µM	> 10 µM	> 10 µM	> 10 µM	> 10 µM	93.8%	88.9%	93.1%	100%	94.1%	99.6%	94.2%	91.1%	98.6%	104%	96.4%	97.9%	92.7%	103%	94.8%	99.6%	107%	99.5%	100%	100%	100%	102%	87.8%	89.4%	96.3%
O=c1c(O)c(-c2ccc(O)cc2O)oc2cc(O)cc(O)c12 [morin]	0	0	0	0	0	> 10 µM	> 10 µM	> 10 µM	> 10 µM	> 10 µM	113%	99.5%	96.3%	91.6%	102%	87.2%	103%	98.9%	97.4%	98.9%	101%	93.7%	104%	97.3%	102%	94.9%	95.8%	99%	98.4%	95.9%	102%	96.5%	96.6%	102%	88.6%
